From patent US11203565B2, “Ester compound and PIN1 inhibitor, inflammatory disease therapeutic, and colon cancer therapeutic in which said ester compound is used” (Hiroshima University, priority 2016, dated 2021)

Key:
Pin1 = molecular target: T1, Pin1 (Homo sapiens, UniProt Q13526); assay: Evaluation of inhibitory activity on function of Pin1: cell assay using degree of AMPK phosphorylation as index; type: cell-based; design: key to Pin1 inhibitory activity: −: Promotion of AMPK phosphorylation was not (or hardly) found.; +: Phosphorylation of AMPK was promoted, but the promotion was weaker than that by C1.; ++: Phosphorylation of AMPK was promoted to the same degree as in the case of C1.; +++: Phosphorylation of AMPK was promoted more strongly than in the case of C1; conditions: 293T cells
T1 construct: endogenous in cells; host or cells: 293T cells
Description: In order to evaluate the inhibitory activities of the compounds of the present invention synthesized in Example 2 on the function of Pin1, an assay using cells was carried out according to a method previously developed by the present inventors (Yusuke Nakatsu et al., Journal of Biological Chemistry, 2015, Vol. 290, No. 40, pp. 24255-24266), using as an index the degree of phosphorylation of AMPK (AMP-activated protein kinase), whose phosphorylation is known to be suppressed by Pin1.
Briefly, 293T cells were plated on a 24-well plate coated with collagen. Forty-eight hours later, each compound (100 μM) synthesized in the Example was added to the plate, and the plate was left to stand in an incubator for 30 minutes. Thereafter, 10 mM 2-DG was added to the plate, and, 1 hour later, each sample was collected using a buffer containing mercaptoethanol and SDS.
According to conventional methods, SDS-PAGE and blotting were carried out, and then blocking was carried out with 3% BSA for 1 hour. Thereafter, reaction was carried out at normal temperature for 1 hour with each of a pAMPK antibody (Cell signaling 1:2000, Can get signal solution 1: diluted by Toyobo) as a primary antibody, and an HRP-linked anti rabbit IgG (GE healthcare 1:4000, Can get signal solution 2: diluted by Toyobo) as a secondary antibody, to perform detection.
As a compound to be compared, C1: (R)-2-(5-(4-methoxyphenyl)-2-methylfuran-3-carboxamido)-3-(naphthalene-6-yl)propanoic acid, which is an already reported Pin1 inhibitor, was used.
In FIG. 3, “-” indicates the degree of phosphorylation of AMPK in a case where no Pin1 inhibitor was added, and “C1”, “H-30”, “H-31”, “H-32”, and “H-33” indicate the degrees of phosphorylation of AMPK in cases where the respective Pin1 inhibitors were added. […] The inhibitory activity on the function of Pin1 was rated as follows based on comparison with the degree of inhibition by C1.

[1] = system: model animals of ulcerative colitis (3% DSS); assay: Therapeutic experiment using model animals of ulcerative colitis (Example 4); type: in vivo, C57BL6 mice; conditions: DSS mice, compound 1 mg/kg/day
Description: To C57BL6 mice of 8 weeks old, 3% DSS (dextran sulfate sodium)-containing water or water (control) was administered by allowing the mice to drink it for 7 days. For the mice to which DSS was administered, groups in which 5-ASA (compound name: 5-aminosalicylic acid; generic name: Mesalazine), which is a therapeutic agent for inflammatory bowel diseases, the compound synthesized in Example 2-7 (H-31), or the compound synthesized in Example 2-36 (H-179) was administered, and a group in which no compound was administered were provided. On Day 7 after the beginning of the administration, the body weight of each mouse was measured, and the large intestine was removed from the mouse, followed by carrying out histological study. […] In FIGS. 4(A) and (B), “normal” indicates a case where water was administered, and “DSS” indicates cases where DSS-containing water was administered. “non” indicates a case where no compound was administered, and “5-ASA”, “H-31”, and “H-179” indicate cases where the respective compounds were administered. The dose was as follows: 5-ASA, 300 mg/kg/day; H-31, 1 mg/kg/day; H-179, 1 mg/kg/day. As shown in FIG. 4(A), weight loss due to inflammation of the intestine was found in the cases where DSS was administered.

[2] = system: model animals of ulcerative colitis (DSS); assay: Comparison between oral and intraperitoneal administration in DSS mice (Example 5); type: in vivo; conditions: 1 mg/kg/day
Description: A compound whose therapeutic effect on ulcerative colitis could be confirmed in Example 4 (H-31) was studied on the difference in its effect depending on the administration method. […] In FIGS. 5(A) and (B), “normal” indicates a case where water was administered, and “DSS” indicates cases where DSS-containing water was administered. “non” indicates a case where no compound was administered, and “H-31” indicates a case where the compound synthesized in Example 2-7 was administered.

[3] = system: model animals of ulcerative colitis (3% DSS); assay: Therapeutic experiment using model animals of ulcerative colitis 2 (Example 6); type: in vivo, C57BL6 mice; conditions: DSS mice, 1 mg/kg/day
Description: To C57BL6 mice of 8 weeks old, 3% DSS (dextran sulfate sodium)-containing water or water (control) was administered by allowing the mice to drink it for 7 days. […] On Day 7 after the beginning of the administration, the body weight of each mouse was measured, and the large intestine was removed from the mouse, followed by carrying out histological study. […] In addition, an experiment for measuring the colon length was carried out.

Pin1 protein = assay: Confirmation of Pin1 expression level in the intestinal tract of DSS mice (Example 7); type: in vivo; conditions: after 7 days of administration
Description: The expression level of Pin1 in the intestinal tract was measured for each mouse subjected to the therapeutic experiment in Example 5.
The present results also support that the compound synthesized in Example 2-7 (H-31) prevents development of ulcerative colitis.

NASH model mice = assay: Therapeutic experiment for NASH in MCDD-fed NASH model mice (Example 8); type: in vivo, mice (C57BL/6J); conditions: NASH mice fed MCDD 8 weeks, intraperitoneal 2.5 mg/kg/day 3 times a week
Description: In order to test the therapeutic effect of a compound of the present invention on non-alcoholic steatohepatitis (NASH), an animal experiment using NASH model mice was carried out.
The NASH model mice (hereinafter referred to as “NASH mice”) were prepared by feeding male individuals of laboratory mice (C57BL/6J) with methionine-choline-deficient diet (MCDD) for 8 weeks to allow accumulation of fat in the liver. The animal experiment was carried out for a group in which a compound of the present invention (H-31) was intraperitoneally administered 3 times a week at 2.5 mg/kg/day during the 8 weeks of the MCDD feeding period, and a group in which no administration was carried out. In addition, in order to provide control mice, male individuals of laboratory mice (C57BL/6J) were fed with normal diet for 8 weeks.
The results of measurement of the blood AST (GOT) level and the blood ALT (GPT) level in these mice are shown in FIGS. 8(A) and (B), respectively.

colon cancer model mice = assay: Therapeutic experiment for colon cancer in AOM/DSS colon cancer model mice (Example 9); type: in vivo; conditions: oral 1.25 mg/kg/day 3 times a week from Day 6, Day 89, vs control
Description: On Day 1, azoxymethane (AOM) was intraperitoneally administered at 12 mg/kg to laboratory mice. Thereafter, from Day 6, a course of 5 days of oral administration of 3% dextran sulfate sodium (DSS) and a period of 16 days without administration of DSS was repeated 4 times to prepare colon cancer model mice having cancer caused by inflammation of the large intestine. A group in which a compound of the present invention (H-31) was administered and a group without administration of the compound of the present invention (control) were provided. In the group in which the compound of the present invention (H-31) was administered, oral administration was carried out 3 times a week at 1.25 mg/kg/day from Day 6.
On Day 89, the colon cancer model mice were dissected, and the number of colon cancer developed and the tumor area per colon cancer (total tumor area/number of tumors) were measured.

T1 sequence (Q13526 whole entry): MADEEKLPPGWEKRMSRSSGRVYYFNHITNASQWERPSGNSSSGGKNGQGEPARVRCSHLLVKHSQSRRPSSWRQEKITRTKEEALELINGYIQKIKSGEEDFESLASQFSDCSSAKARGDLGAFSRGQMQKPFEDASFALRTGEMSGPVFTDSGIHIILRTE

## O=C(O[C@H](Cc1ccc2ccccc2c1)C(=O)O)C1c2ccccc2-c2ccccc21 [Compound H-31]
Pin1; compound 100 μM, 10 mM 2-DG, pAMPK immunoblot rated by comparison with C1
  Pin1 inhibitory activity: +++
Pin1; cell-based experiment, 100 μM
  inhibitory activity on Pin1 (stated in words): both have inhibitory activities on Pin1
[1]; Day 7
  tissue damage in the large intestine (stained section): tissue damage in the large intestine was hardly found
[1]; Day 7, vs no compound
  weight loss (body weight as ratio to body weight before administration): the weight loss was significantly smaller
[2]; intraperitoneal administration
  body weight change: no significant difference was found
[2]; oral administration
  body weight change: a significant decrease in the body weight change
[3]
  tissue damage in the large intestine (stained section): tissue damage in the large intestine was hardly found
[3]; vs no compound
  change in the colon length: the change in the colon length was significantly smaller
  weight loss: the weight loss was significantly smaller
Pin1 protein
  increase in the Pin1 protein level in the intestinal tract: could be significantly ameliorated
NASH model mice
  blood ALT (GPT) level: the ALT value decreased
  blood AST (GOT) level: the AST value decreased
  fibrosis of liver tissue (Azan staining): fibrosis of liver tissue was remarkably suppressed
Colon cancer model mice
  number of colon cancer developed: no significant difference in the number of colon cancer
  tumor area per colon cancer (total tumor area/number of tumors): reduction of the tumor area could be found
